Results reported in the supplement of paper PMC10307832.

Key:
Experiment in all cases: relative viability (nuclei count vs DMSO), 5 days (fraction); higher = more cells survive
CAL-12T = tested on: CAL-12T
In short: (§1)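 Relative viability equals treated-well nuclei counts divided by vehicle-well nuclei counts. Counts came from 4× images of lung cancer cell lines grown in 1536-well plates for 5 days after pin-tool dosing on the day after seeding. Dosing used one drug alone or a fixed anchor-drug dose plus five library-drug doses (not always all listed) in √10 steps, and values are medians of duplicate plates.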

COR-L 105 = tested on: COR-L 105
In short: as §1

H3255 = tested on: H3255
In short: as §1

HARA = tested on: HARA
In short: as §1

HCC-15 = tested on: HCC-15
In short: as §1

HCC-366 = tested on: HCC-366
In short: as §1

LC-2-ad = tested on: LC-2-ad
In short: as §1

LU99A = tested on: LU99A
In short: as §1

NCI-H1395 = tested on: NCI-H1395
In short: as §1

NCI-H1666 = tested on: NCI-H1666
In short: as §1

NCI-H1734 = tested on: NCI-H1734
In short: as §1

NCI-H1944 = tested on: NCI-H1944
In short: as §1

NCI-H1975 = tested on: NCI-H1975
In short: as §1

NCI-H1993 = tested on: NCI-H1993
In short: as §1

NCI-H2228 = tested on: NCI-H2228
In short: as §1

NCI-H3122 = tested on: NCI-H3122
In short: as §1

NCI-H520 = tested on: NCI-H520
In short: as §1

NCI-H647 = tested on: NCI-H647
In short: as §1

NCI-H661 = tested on: NCI-H661
In short: as §1

NCI-H838 = tested on: NCI-H838
In short: as §1

PC-14 = tested on: PC-14
In short: as §1

PC-3 [JPC-3] = tested on: PC-3 [JPC-3]
In short: as §1

SK-LU-1 = tested on: SK-LU-1
In short: as §1

With `Cc1cnc(-c2cnc(NCCNc3ccc(C#N)cn3)nc2-c2ccc(Cl)cc2Cl)[nH]1` + N=C(N)NC(=N)NCCc1ccccc1 [Phenformin] (partner 250 µM) the relative viability (CAL-12T; first compound 0.08 µM) was 0.655, the relative viability (CAL-12T; first compound 0.253 µM) was 0.511 and the relative viability (CAL-12T; first compound 0.8 µM) was 0.597. It also gave a relative viability (CAL-12T; first compound 2.53 µM) of 0.579, a relative viability (COR-L 105; first compound 0.08 µM) of 0.532 and a relative viability (COR-L 105; first compound 0.253 µM) of 0.487. For the same compound, the relative viability (COR-L 105; first compound 0.8 µM) was 0.53, the relative viability (COR-L 105; first compound 2.53 µM) was 0.357 and the relative viability (H3255; first compound 0.08 µM) was 0.409. It also gave a relative viability (H3255; first compound 0.253 µM) of 0.342, a relative viability (H3255; first compound 0.8 µM) of 0.317 and a relative viability (H3255; first compound 2.53 µM) of 0.349. The relative viability (HARA; first compound 0.08 µM) was 0.451, the relative viability (HARA; first compound 0.253 µM) was 0.413 and the relative viability (HARA; first compound 0.8 µM) was 0.477. The relative viability (HARA; first compound 2.53 µM) was 0.412, the relative viability (HCC-15; first compound 0.08 µM) was 0.462 and the relative viability (HCC-15; first compound 0.253 µM) was 0.415. For the same compound, the relative viability (HCC-15; first compound 0.8 µM) was 0.471, the relative viability (HCC-15; first compound 2.53 µM) was 0.412 and the relative viability (HCC-366; first compound 0.08 µM) was 0.606. The relative viability (HCC-366; first compound 0.253 µM) was 0.455, the relative viability (HCC-366; first compound 0.8 µM) was 0.557 and the relative viability (HCC-366; first compound 2.53 µM) was 0.507. The relative viability (LC-2-ad; first compound 0.08 µM) was 0.591, the relative viability (LC-2-ad; first compound 0.253 µM) was 0.515 and the relative viability (LC-2-ad; first compound 2.53 µM) was 0.487. For the same compound, the relative viability (LU99A; first compound 0.08 µM) was 0.972, the relative viability (LU99A; first compound 0.253 µM) was 0.769 and the relative viability (LU99A; first compound 0.8 µM) was 0.962. For the same compound, the relative viability (LU99A; first compound 2.53 µM) was 0.752, the relative viability (NCI-H1395; first compound 0.08 µM) was 0.483 and the relative viability (NCI-H1395; first compound 0.253 µM) was 0.424. For the same compound, the relative viability (NCI-H1395; first compound 0.8 µM) was 0.45, the relative viability (NCI-H1395; first compound 2.53 µM) was 0.431 and the relative viability (NCI-H1666; first compound 0.08 µM) was 0.548. It also gave a relative viability (NCI-H1666; first compound 0.253 µM) of 0.563, a relative viability (NCI-H1666; first compound 0.8 µM) of 0.553 and a relative viability (NCI-H1666; first compound 2.53 µM) of 0.572. The relative viability (NCI-H1734; first compound 0.08 µM) was 0.49, the relative viability (NCI-H1734; first compound 0.253 µM) was 0.379 and the relative viability (NCI-H1734; first compound 0.8 µM) was 0.391. The relative viability (NCI-H1734; first compound 2.53 µM) was 0.355, the relative viability (NCI-H1944; first compound 0.08 µM) was 0.203 and the relative viability (NCI-H1944; first compound 0.8 µM) was 0.221. For the same compound, the relative viability (NCI-H1944; first compound 2.53 µM) was 0.195, the relative viability (NCI-H1975; first compound 0.08 µM) was 0.418 and the relative viability (NCI-H1975; first compound 0.253 µM) was 0.405. For the same compound, the relative viability (NCI-H1975; first compound 0.8 µM) was 0.384, the relative viability (NCI-H1975; first compound 2.53 µM) was 0.286 and the relative viability (NCI-H1993; first compound 0.08 µM) was 0.493. It also gave a relative viability (NCI-H1993; first compound 0.253 µM) of 0.477, a relative viability (NCI-H1993; first compound 0.8 µM) of 0.521 and a relative viability (NCI-H1993; first compound 2.53 µM) of 0.535. For the same compound, the relative viability (NCI-H2228; first compound 0.08 µM) was 0.256, the relative viability (NCI-H2228; first compound 0.253 µM) was 0.357 and the relative viability (NCI-H2228; first compound 0.8 µM) was 0.366. For the same compound, the relative viability (NCI-H2228; first compound 2.53 µM) was 0.228, the relative viability (NCI-H3122; first compound 0.08 µM) was 0.367 and the relative viability (NCI-H3122; first compound 0.8 µM) was 0.383. For the same compound, the relative viability (NCI-H3122; first compound 2.53 µM) was 0.327, the relative viability (NCI-H520; first compound 0.08 µM) was 0.861 and the relative viability (NCI-H520; first compound 0.253 µM) was 0.628. For the same compound, the relative viability (NCI-H520; first compound 0.8 µM) was 0.542, the relative viability (NCI-H520; first compound 2.53 µM) was 0.641 and the relative viability (NCI-H647; first compound 0.08 µM) was 0.598. The relative viability (NCI-H647; first compound 0.253 µM) was 0.362, the relative viability (NCI-H647; first compound 0.8 µM) was 0.391 and the relative viability (NCI-H647; first compound 2.53 µM) was 0.28. The relative viability (NCI-H661; first compound 0.08 µM) was 0.298, the relative viability (NCI-H661; first compound 0.253 µM) was 0.295 and the relative viability (NCI-H661; first compound 0.8 µM) was 0.287. The relative viability (NCI-H661; first compound 2.53 µM) was 0.314, the relative viability (NCI-H838; first compound 0.08 µM) was 0.634 and the relative viability (NCI-H838; first compound 0.253 µM) was 0.601. It also gave a relative viability (NCI-H838; first compound 0.8 µM) of 0.594, a relative viability (NCI-H838; first compound 2.53 µM) of 0.709 and a relative viability (PC-14; first compound 0.08 µM) of 0.586. For the same compound, the relative viability (PC-14; first compound 0.253 µM) was 0.413, the relative viability (PC-14; first compound 0.8 µM) was 0.568 and the relative viability (PC-14; first compound 2.53 µM) was 0.421. The relative viability (PC-3 [JPC-3]; first compound 0.08 µM) was 0.478, the relative viability (PC-3 [JPC-3]; first compound 0.253 µM) was 0.474 and the relative viability (PC-3 [JPC-3]; first compound 0.8 µM) was 0.508. For the same compound, the relative viability (PC-3 [JPC-3]; first compound 2.53 µM) was 0.473, the relative viability (SK-LU-1; first compound 0.08 µM) was 0.649 and the relative viability (SK-LU-1; first compound 0.253 µM) was 0.533. For the same compound, the relative viability (SK-LU-1; first compound 0.8 µM) was 0.576 and the relative viability (SK-LU-1; first compound 2.53 µM) was 0.557.
